Laboratory results from US20250346581A1, “PROCESS FOR SYNTHESIS OF GALBULIMIMA ALKALOID 18 AND COMPOUNDS USEFUL AS OPIOID RECEPTOR ANTAGONISTS AND AGONISTS” (The Scripps Research Institute, priority 2022, published 2025).
“Also recorded” adds a separate entry of the source. Like-named read-outs stand apart in the source and are kept apart here. Marks after values point to notes of the source that are not given here. Blank lines part the entries; values can stand above or below the compound they belong to.

Tests used:
[1] = target: T1, KOR (Homo sapiens, UniProt P41145); test: KOR cAMP inhibition screening, antagonist mode vs. 100 nM U69,593; details: Antagonist vs. 100 nM U69,593 IC50 (nM)
T1 sequence (P41145 whole entry): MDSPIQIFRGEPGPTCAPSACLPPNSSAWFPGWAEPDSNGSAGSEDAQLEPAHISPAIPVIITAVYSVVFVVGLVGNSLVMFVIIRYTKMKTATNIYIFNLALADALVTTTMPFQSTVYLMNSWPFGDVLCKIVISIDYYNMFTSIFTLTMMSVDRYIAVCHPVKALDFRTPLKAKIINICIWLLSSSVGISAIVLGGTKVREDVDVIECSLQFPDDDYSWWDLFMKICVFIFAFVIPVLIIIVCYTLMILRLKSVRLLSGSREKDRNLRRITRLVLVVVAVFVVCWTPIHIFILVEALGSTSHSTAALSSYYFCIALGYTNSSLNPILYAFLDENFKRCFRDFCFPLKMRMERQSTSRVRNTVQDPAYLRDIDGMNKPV

[2] = target: T1, KOR; test: KOR cAMP inhibition screening, agonist mode
[3] = tested on: mammals; details: in vivo; cited from earlier work
[4] = target: nociceptin opioid receptors (Homo sapiens, UniProt P41146); test: Follow-up assay nociceptin opioid receptor; type: cell-based
nociceptin opioid receptors, sequence (P41146 whole entry): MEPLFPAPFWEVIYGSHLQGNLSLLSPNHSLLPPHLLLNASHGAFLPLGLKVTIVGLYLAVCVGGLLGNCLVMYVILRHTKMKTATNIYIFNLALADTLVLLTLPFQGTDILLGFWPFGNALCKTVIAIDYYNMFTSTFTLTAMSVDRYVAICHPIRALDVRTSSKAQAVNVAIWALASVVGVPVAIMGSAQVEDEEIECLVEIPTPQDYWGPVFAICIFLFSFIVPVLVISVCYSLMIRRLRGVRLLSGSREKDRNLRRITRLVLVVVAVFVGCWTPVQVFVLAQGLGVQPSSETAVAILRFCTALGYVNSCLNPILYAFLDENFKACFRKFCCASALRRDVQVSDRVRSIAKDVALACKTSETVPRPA

[5] = target: T2, mu-opioid receptors (MOR) (Homo sapiens, UniProt P35372); test: NIMH PDSP radioligand displacement, [3H]DAMGO; type: binding; details: 10 μM
T2 construct: NIMH Psychoactive Drug Screening Program (screening service)
T2 sequence (P35372 whole entry): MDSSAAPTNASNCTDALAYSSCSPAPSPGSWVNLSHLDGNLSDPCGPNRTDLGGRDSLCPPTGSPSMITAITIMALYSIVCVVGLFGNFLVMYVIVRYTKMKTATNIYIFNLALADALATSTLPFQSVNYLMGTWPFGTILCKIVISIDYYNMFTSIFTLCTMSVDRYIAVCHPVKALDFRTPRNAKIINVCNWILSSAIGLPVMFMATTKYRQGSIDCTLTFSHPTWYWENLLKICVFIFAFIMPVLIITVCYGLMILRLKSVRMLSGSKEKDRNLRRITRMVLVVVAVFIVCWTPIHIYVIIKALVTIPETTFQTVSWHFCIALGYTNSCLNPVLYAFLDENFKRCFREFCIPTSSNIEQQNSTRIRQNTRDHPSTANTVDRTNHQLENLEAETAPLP

[6] = tested on: >40 common drug targets; test: NIMH PDSP binding screen of common drug targets; details: 10 μM
[7] = target: T3, kappa-opioid receptors (KOR) (Homo sapiens, UniProt P41145); test: NIMH PDSP radioligand displacement, [3H]U-69593; type: binding; details: for displacement of [3H]U-69593 from KOR: 10 μM
T3 construct: NIMH Psychoactive Drug Screening Program (screening service)
T3 sequence (P41145 whole entry): as the sequence (P41145 whole entry) above

[8] = target: MOR (Homo sapiens, UniProt P35372); test: TANGO assay MOR; type: cell-based
MOR, sequence (P35372 whole entry): as the sequence (P35372 whole entry) above

[9] = target: T1, KOR; test: TANGO assay KOR; type: cell-based
[10] = target: delta-opioid receptors (Homo sapiens, UniProt P41143); test: Follow-up assay delta-opioid receptor; type: cell-based
delta-opioid receptors, sequence (P41143 whole entry): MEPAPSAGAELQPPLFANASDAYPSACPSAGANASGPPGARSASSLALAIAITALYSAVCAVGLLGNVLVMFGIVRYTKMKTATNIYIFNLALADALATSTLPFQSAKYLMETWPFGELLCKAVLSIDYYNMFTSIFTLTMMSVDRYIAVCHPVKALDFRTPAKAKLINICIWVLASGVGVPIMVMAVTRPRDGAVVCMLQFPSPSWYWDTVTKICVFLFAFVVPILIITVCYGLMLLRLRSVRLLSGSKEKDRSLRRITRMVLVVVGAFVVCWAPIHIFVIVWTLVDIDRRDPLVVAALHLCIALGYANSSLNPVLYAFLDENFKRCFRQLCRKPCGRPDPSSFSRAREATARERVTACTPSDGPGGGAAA

[11] = tested on: Mas-related GPCRs; test: Follow-up assay Mas-related GPCRs; type: cell-based
[12] = tested on: rabbit intestine; details: 0.1 mg/L, furmethide-induced spasm; cited from earlier work
[13] = target: T1, KOR
[14] = tested on: mouse; details: 5 mg/kg; cited from earlier work
[15] = tested on: M1-5; test: Muscarinic receptor binding (FIG. 3)
Source text: Thus, the topology changes that differentiate the two subclasses also differentiate target selectivity.

[16] = tested on: mouse; details: 5 mg/kg; cited from earlier work; remark: listed apart in the source
[17] = tested on: mammals; details: cited from earlier work
[18] = tested on: cats; details: 2.5 mg/kg, i.v. administration; cited from earlier work
[19] = read-out: Agonist Emax (% U69,593), KOR cAMP, agonist mode
[20] = read-out: Agonist Emax (% U69,593)

Compound: CC1CCCC([C@H]2C[C@H]3C4CCCCC45C=C(I)[C@H]4C2(C)OC345)N1C (stereo partly drawn)
IC50 [1]: 1400 nM

Compound: COC(=O)C1=CC23CCCCC2[C@@H]2C[C@H](c4cccc(C)c4)C4(C)OC23[C@@H]14 (stereo partly drawn)
Agonist Emax (% U69,593) [2]: 60* % U69,593
EC50 [2]: 1050 nM

Emax [2, 19]: 8%
Compound: CC1CCCC(C2CC3C4CCCCC45C=C(C#N)C4C2(C)OC345)N1C (stereo not drawn)

Emax [2, 19]: 4%
Compound: CC1CCCC(C2CC3C4CCCCC45C=C(C4=NCCO4)C4C2(C)OC345)N1C (stereo not drawn)

Compound: CC1CCCC(C2CC3C4CCCCC45C=C(CO)C4C2(C)OC345)N1C (stereo not drawn)
Emax [2, 20]: 12%
IC50 [1]: 116 nM

Compound: himandravine
CNS depression [3]: strong CNS depression
anticonvulsant activity against electroshock seizure [3]: anticonvulsant activity

Compound: COC(=O)C1=CC23CCCCC2[C@@H]2C[C@H](c4cccnc4)C4(C)OC23[C@@H]14 (stereo partly drawn)
Emax [2, 20]: 19%
IC50 [1]: > 10000 nM

Compound: CC1CCCC(C2CC3C4CCCCC45C=C(I)C4C2(C)OC345)N1C (stereo not drawn)
IC50 [1]: 830 nM

Compound: COC(=O)C1=CC23CCCCC2[C@@H]2C[C@H](C4CCCC(C)N4)C(C)(O3)[C@H]12 (single isomer, unassigned) [nat-GB18]
ligation of nociceptin opioid receptors [4]: not strongly ligated
displacement of [3H]DAMGO from MOR [5]: 85%
binding to >40 common drug targets [6]: low or statistically-insignificant
displacement of [3H]U-69593 from KOR [7]: 87%
IC50 ([8]; TANGO, antagonist): 12 nM
IC50 ([9]; TANGO, antagonist): 10 nM
ligation of delta-opioid receptors [10]: not strongly ligated
ligation of Mas-related GPCRs [11]: not strongly ligated

Compound: COC1CC23CCCCC2C2CC(C4CCCC(C)N4)C4(C)OC23C14 (stereo not drawn) [drawing 167]
Agonist Emax (% U69,593) [2]: 10* % U69,593
IC50 [1]: 6250 nM

Compound: C[C@@H]1CC[C@H]2[C@H](C[C@@H]3C[C@@]2(O)C2=CC(=O)[C@H]4CCCC[C@@H]4[C@H]23)N1C [Himbadine]
antispasmodic activity [12]: significant antispasmodic activity

IC50 [1]: > 10000 nM
Agonist Emax (% U69,593) [13]: 10* % U69,593
Compound: COC(=O)C1CC23CCCCC2C2CC(C4CCCC(C)N4)C4(C)OC23C14 (stereo not drawn) [drawing 154]

Compound: COC(=O)C1=CC23CCCCC2[C@H]2C[C@@H](C4CCCC(C)N4)C(C)(O3)[C@@H]12 (single isomer, unassigned) [ent-GB18]
displacement of [3H]U-69593 from KOR [7]: 56%
Ki ([7]; [3H]U-69593 displacement): 1100 nM

Compound: COC(=O)C1=C[C@@]23CCCC[C@H]2[C@@H]2C[C@H]([C@H]4CCC[C@@H](C)N4)C(C)(O3)[C@H]12 [GB18, methyl (2R,3aS,5aR,9aS,9bS)-3-methyl-2-((2R,6R)-6-methylpiperidin-2-yl)-1,2,3,3a,6,7,8,9,9a,9b-decahydro-3,5a-epoxycyclopenta[a]naphthalene-4-carboxylate]
inhibition of mouse preening [14]: inhibition of preening; also recorded: inhibited mouse preening
antagonism of MOR ([8]; FIG. 3): high potency
antagonism of KOR ([9]; FIG. 3): high potency
binding to M1-5 [15]: does not bind
effect on pain threshold [16]: without effect; also recorded: no effect

Compound: CC1CCCC(C=CC2C3CCCCC3CC3C(=O)OC(C)C32)N1 (stereo not drawn) [himbeline]
depressant and hypotensive activity ([17]; no dose listed): weakly depressant and hypotensive

Compound: COC(=O)C1=C2C3(O)CC4CC5C3CCC(C)N5C24C2CCC(O)C(OC)C2C1OC(=O)c1ccccc1 (stereo not drawn) [himandridine]
hypotensive activity ([17]; 2.5 mg/kg): moderate to marked hypotensive activity

Emax [2, 19]: 2%
Compound: C=CCN1C(C)CCCC1C1CC2C3CCCCC34C=C(C(=O)OC)C3C1(C)OC234 (stereo not drawn)

Emax [2, 19]: 13%
IC50 [1]: 5000 nM
Compound: COC(=O)C1CC23CCCCC2C2CC(C4CCCC(C)N4)C4(C)OC23C14 (stereo not drawn) [drawing 153]

Emax [2, 19]: 12%
Compound: CC(=O)C1=CC23CCCCC2C2CC(C4CCCC(C)N4C)C4(C)OC23C14 (stereo not drawn)

Compound: COC1CC23CCCCC2C2CC(C4CCCC(C)N4)C4(C)OC23C14 (stereo not drawn) [drawing 168]
Emax [2, 20]: 17%

Emax [2, 19]: 10%
Compound: COCC(=O)C1=CC23CCCCC2C2CC(C4CCCC(C)N4C)C4(C)OC23C14 (stereo not drawn)

Compound: COC(=O)C1=CC23CCCCC2C2CC(C4CCCC(C)N4C(C)=O)C4(C)OC23C14 (stereo not drawn)
Emax [2, 20]: 10%
IC50 [1]: > 10000 nM

Compound: COC(=O)C1=C2C3(O)CC4CC5C3CCC(C)N5C24C2CCCC(OC)C2C1OC(=O)c1ccccc1 (stereo not drawn) [Himandrine]
heart rate [18]: reduced heart rate
hypotension [18]: marked and sustained hypotension

Compound: CCOC(=O)C1=CC23CCCCC2C2CC(C4CCCC(C)N4C)C4(C)OC23C14 (stereo not drawn)
Emax [2, 20]: 15%
IC50 [1]: 3390 nM

Compound: C#CCOC(=O)C1=CC23CCCCC2C2CC(C4CCCC(C)N4)C4(C)OC23C14 (stereo not drawn)
Emax [2, 20]: 5%
IC50 [1]: 556 nM

Emax [2, 19]: 5%
Compound: COC1CC23CCCCC2C2CC(c4cccc(C)n4)C4(C)OC23C14 (stereo not drawn)

Compound: COCC1=CC23CCCCC2C2CC(C4CCCC(C)N4C)C4(C)OC23C14 (stereo not drawn)
Emax [2, 20]: 14%
IC50 [1]: 3220 nM
